Entries after “also recorded” stand apart in the source; their conditions may differ.

Experiment [1] has as its target human adenosine receptor A2A (Homo sapiens, UniProt P29274). To be noted: recombinant human receptor; cited from earlier work.
The subject of experiment [2] is Tat-stimulated TNF release in monocytes. The experiment can be described thus: Tat-stimulated TNF release by primary monocytes (ELISA). Type of experiment: cell-based, human. To be noted: 4 h. The procedure: Human primary monocytes were treated with Tat (100 nM) in the presence or absence of the A2AR agonist, CGS21680 (CGS; 1 μM) or the A2AR antagonist, ZM241385 (100 nM) for 4 h. TNF levels in culture supernatants were then quantitated by ELISA. Data represent mean+SEM of three replicates, from a single representative experiment
Primary monocytes were seeded in separate triplicate wells, and exposed independently to LPS (100 ng/ml), vehicle (NT) or Tat (100 nM) in the presence or absence of the A2AR agonist, CGS21680 (1 μM). After 4 h, cells were harvested. (A) TNF was measured in cell supernatants by ELISA Mean data values (±S.D.) are shown for the triplicate wells. (B) The corresponding cells from each well in panel A were lysed and subjected to qRTPCR analysis. Each cDNA sample was analyzed in quadruplicate. Assay results are presented as fold induction of gene expression, compared to untreated cells, after normalization to levels of GAPDH. Data represent mean±SD for each individual experimental replicate/well.
Human primary monocytes were treated with Tat (100 nM) in the presence or absence of the A2AR agonist, ATL313 (1-4 nM) or the A2AR antagonist, ATL455 (1-4 nM) for 4 h. TNF levels in culture supernatants were then quantitated by ELISA. […]
Human primary monocytes were treated with Tat (100 nM) in the presence or absence of the A2AR agonist, ATL313 (at the indicated doses) for 4 h. TNF levels in culture supernatants were then quantitated by ELISA. […]
(6) Primary monocytes. […] Results are compared for both populations, as well as purity (as assessed by immunophenotyping using CD14, CD68 and MHC class II).
The effect of an A2AR agonist on TNF release by primary human monocytes was also determined. Monocytes were stimulated with HIV-1 Tat, in the presence or absence of the A2AR agonist CGS21680 or the A2AR antagonist ZM251385 and TNF release was then measured in cell culture supernatants using an ELISA assay.
Quantitative real-time PCR analysis was used to measure TNF message levels in Tat-treated monocytes. […]
(In general: In an ELISA, binding on a coated surface is turned into a signal by an enzyme label.)

Experiment [3] has as its target T1, human adenosine receptor A2B (Homo sapiens, UniProt P29275).
T1 sequence (P29275 1-332): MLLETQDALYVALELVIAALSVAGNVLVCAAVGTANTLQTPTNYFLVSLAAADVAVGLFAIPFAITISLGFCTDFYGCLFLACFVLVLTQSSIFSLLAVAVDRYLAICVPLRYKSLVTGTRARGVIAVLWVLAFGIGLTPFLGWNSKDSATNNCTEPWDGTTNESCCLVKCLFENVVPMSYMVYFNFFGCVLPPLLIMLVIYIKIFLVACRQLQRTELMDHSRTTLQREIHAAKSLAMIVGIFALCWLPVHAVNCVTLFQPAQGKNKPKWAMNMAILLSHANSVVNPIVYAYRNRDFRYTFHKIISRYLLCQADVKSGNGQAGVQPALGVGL
As to conditions: recombinant human receptor; cited from earlier work.

In experiment [4] the target is T2, human adenosine receptor A1 (Homo sapiens, UniProt P30542).
T2 sequence (P30542 1-326): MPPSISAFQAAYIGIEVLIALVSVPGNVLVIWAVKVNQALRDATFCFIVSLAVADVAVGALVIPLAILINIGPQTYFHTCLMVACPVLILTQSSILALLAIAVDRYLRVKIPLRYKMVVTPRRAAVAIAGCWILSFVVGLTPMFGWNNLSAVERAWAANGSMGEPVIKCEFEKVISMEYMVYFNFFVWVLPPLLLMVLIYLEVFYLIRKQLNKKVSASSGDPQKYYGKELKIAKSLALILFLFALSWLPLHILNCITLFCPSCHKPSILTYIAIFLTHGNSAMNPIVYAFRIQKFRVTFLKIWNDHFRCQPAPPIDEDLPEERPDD
To be noted: recombinant human receptor; cited from earlier work.

Experiment [5] concerns rat cerebellar granule neurons (CGNs). The experiment can be described thus: Tat-induced apoptosis of cerebellar granule neurons (TUNEL). It is filed as cell-based. To be noted: Tat 500 nM, 48 h. The procedure: CGNs were exposed to HIV-1 Tat (Tat, 500 nM), or vehicle alone (NT), in the presence or absence of the A2A antagonist, ZM241385. After 48 h, cultures were analyzed for the percentage of apoptotic cells using the TUNEL assay. Data represent mean±SEM for one experiment that was performed in triplicate; data are representative of two independent experiments.
CGNs were exposed to HIV-1 Tat (Tat, 500 nM), or vehicle alone (No Tat), in the presence or absence of the A2AR antagonists, ATL455 and ZM241385, or the A2AR agonists ATL313 and CGS21680. After 48 h, cultures were analyzed for the percentage of apoptotic cells using the TUNEL assay. Data represent mean±SEM for one experiment that was performed in triplicate; data are representative of two independent experiments.
(1) Primary rat cerebellar granule neurons (CGNs). CGNs represent a highly homogenous population of primary neurons which are susceptible to Tat and PAF-mediated cell killing and have been used in many of previous studies. CGN cells are isolated according to published procedures [Maggirwar, S. B., et al. 1999. J Neurochem 73:578-86] [Tong, N., et al. 2001. Eur J Neurosci 13:1913-22].
78(4): p. […] 22(6): p. 1102-6].
Primary rat cerebellar granule neurons (CGNs) were exposed to a neurotoxic concentration of HIV-1 Tat, in the presence or absence of an A2AR antagonist (ZM241385). […] It is important to note that CGNs express adenosine A2A receptors [Vacas, J., et al. 2003. Brain Res 992:272-280].
Primary cultures of rat cerebellar granule neurons (CGNs) were exposed to HIV-Tat ([…]) alone or together with increasing doses of the A2AR antagonist ATL-455 or A2A agonists ATL313 or CGS21680. Cells are treated with the test compounds for defined time intervals of up to 48 hours (1, 4, 8, 24, and 48 hours).

Experiment [6] deals with T3, human adenosine receptor A3 (Homo sapiens, UniProt P0DMS8).
T3 sequence (P0DMS8 1-318): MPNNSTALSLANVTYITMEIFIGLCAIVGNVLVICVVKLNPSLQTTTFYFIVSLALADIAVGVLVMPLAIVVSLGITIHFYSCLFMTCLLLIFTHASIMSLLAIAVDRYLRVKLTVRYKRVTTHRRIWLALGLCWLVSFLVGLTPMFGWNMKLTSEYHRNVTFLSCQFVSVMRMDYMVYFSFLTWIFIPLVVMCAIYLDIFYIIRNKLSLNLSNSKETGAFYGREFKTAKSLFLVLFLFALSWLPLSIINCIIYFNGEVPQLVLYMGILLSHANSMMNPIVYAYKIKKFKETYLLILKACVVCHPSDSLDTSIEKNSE
To be noted: recombinant human receptor; cited from earlier work.

Sequence of human adenosine receptor A2A (P29274 whole entry): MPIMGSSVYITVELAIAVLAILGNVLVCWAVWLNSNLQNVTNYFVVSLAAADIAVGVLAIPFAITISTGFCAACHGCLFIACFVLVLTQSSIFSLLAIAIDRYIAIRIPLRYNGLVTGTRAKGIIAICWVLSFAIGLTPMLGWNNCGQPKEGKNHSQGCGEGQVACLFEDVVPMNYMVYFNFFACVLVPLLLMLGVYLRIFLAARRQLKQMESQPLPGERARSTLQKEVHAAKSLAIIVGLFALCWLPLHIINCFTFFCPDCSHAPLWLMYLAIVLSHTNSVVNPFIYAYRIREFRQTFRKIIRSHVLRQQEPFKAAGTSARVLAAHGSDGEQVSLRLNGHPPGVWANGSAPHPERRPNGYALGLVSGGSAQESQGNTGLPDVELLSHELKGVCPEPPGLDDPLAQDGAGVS

In general, Ki refers to the dissociation constant of the complex between target and ligand, obtained from inhibition or displacement. For orientation: IC50 means the point on the concentration scale where inhibition reaches its midpoint. `COC(=O)N1CCC(CC#Cc2nc(N)c3ncn(C4OC(C(=O)NC5CC5)C(O)C4O)c3n2)CC1` (stereo not shown) [ATL313, 4-{3-[6-amino-9-(5-cyclopropylcarbamoyl-3,4-dihydroxytetrahydrofuran-2-yl)-9H-purin-2-yl]prop-2-ynyl}piperidine-1-carboxylic acid methyl ester]: the inhibition constant Ki in experiment [1] was 0.6 nM; in experiment [3], more than 1000 nM; in experiment [4], 52 nM; in experiment [6], 320 nM. Moreover, the IC50 in experiment [2] (Homo sapiens, Monocyte, read-out: approximate IC50 for inhibitory effect on Tat-stimulated TNF release in monocytes) was less than 1 nM. Further, the “effect on Tat-induced monocyte activation (TNF release)” value in experiment [2] (Tat 100 nM, CGS21680 1 μM, ATL313, ATL455 1-4 nM) is on record as “very similar results; also recorded: opposed”. Further, the “effect on Tat-induced neuronal apoptosis” value in experiment [5] was “did not result in an increase in cell death”.

The values above are taken from patent publication US20080269161A1, “Compositions and Methods Relating to Mitochondrial Hyperpolarization in Neurological Disease” (priority 2005, published 2008).
